Measurements from patent US20240262801A1, “COMPOUNDS HAVING 5-(2-FLUORO-6-HYDROXYPHENYL)-1,2,5-THIADIAZOLIDIN-3-ONE 1,1-DIOXIDE AS INHIBITORS OF PROTEIN KINASE PHOSPHATASE ENZYMES” (Ness Therapeutics, Inc., priority 2021, published 2024).
pIC50: −log10 of the molar value. Where two headings read alike, the source gives them in different places.

Experiments:
[1] = tested on: B16F10 mouse melanoma cells; assay: Tumor cells B16F10 cellular growth IFNγ-induced inhibition assay (CellTiter-Glo); assay type: cell-based; conditions: for pIC50: B16-F10, 72 h, 3 days incubation; for inhibition at 100 µM: B16-F10, B16F10, 100 μM compound
How it was run: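 Cells were seeded at 500/well in DMEM + 10% FBS and allowed to adhere overnight at 37° C, 5% CO2. Compounds at 1× final were added via medium with or without IFNγ (5 ng/ml in the dilution medium). After 3 days, CellTiter-Glo luminescence gave % growth inhibition versus the DMSO/IFNγ control, from which IC50 was derived.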

GST-tagged PTPN2 protein = molecular target: T1, GST-tagged PTPN2 protein (Homo sapiens, UniProt P17706); assay: Primary assay of PTPN2 enzymatic activity inhibition (DiFMUP fluorescence); assay type: biochemical; conditions: DiFMUP substrate 2 μM, 60 min at RT
T1 construct: purchased ActiveMotif 31592
How it was run: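 Enzyme at 0.004 ng/μL final in 50 mM HEPES pH 7.2-7.4, 2 mM EDTA, 100 mM NaCl, BSA, 6 mM DTT; compounds preincubated 10 min at RT. DiFMUP added at 2 μM final, 60 min at RT, fluorescence read at ex 360/em 450 nm. IC50 calculated from % inhibition.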

[2] = B16F10, + IFNγ, read-out: IC50 + IFNγ
[3] = B16F10, no IFNγ, read-out: IC50 no IFNγ
[4] = + IFNγ, read-out: % Growth Inhibition at 100 μM + IFNγ
[5] = no IFNγ, read-out: % Growth Inhibition at 100 μM no IFNγ

T1 sequence (P17706 with tags, fused parts or gaps): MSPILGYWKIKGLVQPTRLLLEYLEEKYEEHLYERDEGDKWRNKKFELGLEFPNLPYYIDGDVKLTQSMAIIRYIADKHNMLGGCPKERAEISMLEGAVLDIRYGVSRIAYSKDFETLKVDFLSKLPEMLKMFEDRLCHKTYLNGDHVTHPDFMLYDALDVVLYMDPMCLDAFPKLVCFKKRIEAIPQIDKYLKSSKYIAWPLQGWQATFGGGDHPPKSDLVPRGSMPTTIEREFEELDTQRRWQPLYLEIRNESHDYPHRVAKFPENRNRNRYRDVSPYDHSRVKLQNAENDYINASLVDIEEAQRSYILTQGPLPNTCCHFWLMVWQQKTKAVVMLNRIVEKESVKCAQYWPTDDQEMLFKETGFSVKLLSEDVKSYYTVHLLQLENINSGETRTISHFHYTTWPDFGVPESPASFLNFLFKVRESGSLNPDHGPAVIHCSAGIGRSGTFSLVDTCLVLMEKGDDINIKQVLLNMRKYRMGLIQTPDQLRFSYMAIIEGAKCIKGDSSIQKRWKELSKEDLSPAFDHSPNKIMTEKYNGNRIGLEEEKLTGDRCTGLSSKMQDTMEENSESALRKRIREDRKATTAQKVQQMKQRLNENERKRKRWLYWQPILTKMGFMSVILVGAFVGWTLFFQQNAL

| Compound | pIC50 [1, 2] | pIC50 [1, 3] | pIC50 (GST-tagged PTPN2 protein) | inhibition at 100 µM [1, 4] [%] | inhibition at 100 µM [1, 5] [%] |
| --- | --- | --- | --- | --- | --- |
| Cc1c(S(=O)(=O)Nc2cc(O)c(N3CC(=O)NS3(=O)=O)c(F)c2)cnn1C(F)F [Example 27, 1-(difluoromethyl)-N-[4-(1,1-dioxido-4-oxo-1,2,5-thiadiazolidin-2-yl)-3-fluoro-5-hydroxyphenyl]-5-methyl-1H-pyrazole-4-sulfonamide] | ≤ 4.00 | ≤ 4.00 | 7.00 to 7.30 | 10 to 50 | 10 to 50 |
| O=C1CN(c2c(O)cc(NC(=O)Nc3ccccc3)cc2F)S(=O)(=O)N1 [Example 35, 1-[4-(1,1-dioxido-4-oxo-1,2,5-thiadiazolidin-2-yl)-3-fluoro-5-hydroxyphenyl]-3-phenylurea] | 4.30 to 5.00 | ≤ 4.00 | 8.00 to 8.30 | 75 to 100 | 10 to 50 |
| O=C1CN(c2c(O)cc(NS(=O)(=O)c3ccc(F)cc3)cc2F)S(=O)(=O)N1 [Example 20, N-[4-(1,1-dioxido-4-oxo-1,2,5-thiadiazolidin-2-yl)-3-fluoro-5-hydroxyphenyl]-4-fluorobenzenesulfonamide] | 4.30 to 5.00 | ≤ 4.00 | 7.00 to 7.30 | 50 to 75 | 10 to 50 |
| Cc1ccccc1NC(=O)Nc1cc(O)c(N2CC(=O)NS2(=O)=O)c(F)c1 [Example 39, 1-[4-(1,1-dioxido-4-oxo-1,2,5-thiadiazolidin-2-yl)-3-fluoro-5-hydroxyphenyl]-3-(2-methylphenyl)urea] | 4.00 to 4.30 | ≤ 4.00 | 7.30 to 8.00 | 50 to 75 | 10 to 50 |
| CC(C)(C)c1ccc(S(=O)(=O)Nc2cc(O)c(N3CC(=O)NS3(=O)=O)c(F)c2)cc1 [Example 24, 4-tert-butyl-N-[4-(1,1-dioxido-4-oxo-1,2,5-thiadiazolidin-2-yl)-3-fluoro-5-hydroxyphenyl]benzenesulfonamide] | ≤ 4.00 | ≤ 4.00 | 7.30 to 8.00 | 50 to 75 | 10 to 50 |
| O=C1CN(c2c(O)cc(-c3cc(F)cc(F)c3)cc2F)S(=O)(=O)N1 [Example 4, 5-(3,3′,5′-trifluoro-5-hydroxybiphenyl-4-yl)-1,2,5-thiadiazolidin-3-one 1,1-dioxide] | ≤ 4.00 | ≤ 4.00 | 6.30 to 7.00 | 10 to 50 | 10 to 50 |
| O=C1CN(c2c(O)cc(-c3cccc(NC4CCN(S(=O)(=O)Cc5ccccc5)CC4)c3)cc2F)S(=O)(=O)N1 [Example 12, 5-(3′-{[1-(benzylsulfonyl)piperidin-4-yl]amino}-3-fluoro-5-hydroxybiphenyl-4-yl)-1,2,5-thiadiazolidin-3-one 1,1-dioxide] | ≤ 4.00 | ≤ 4.00 | 6.30 to 7.00 | 10 to 50 | 10 to 50 |
| Cc1ccc(S(=O)(=O)Nc2cc(O)c(N3CC(=O)NS3(=O)=O)c(F)c2)cc1 [Example 18, N-[4-(1,1-dioxido-4-oxo-1,2,5-thiadiazolidin-2-yl)-3-fluoro-5-hydroxyphenyl]-4-methylbenzenesulfonamide] | 4.00 to 4.30 | ≤ 4.00 | 7.30 to 8.00 | 50 to 75 | 10 to 50 |

Now from value to compound, other results behind:

| pIC50 [1, 2] | pIC50 [1, 3] | pIC50 (GST-tagged PTPN2 protein) | Compound | inhibition at 100 µM [1, 4] [%] | inhibition at 100 µM [1, 5] [%] |
| --- | --- | --- | --- | --- | --- |
| 4.00 to 4.30 | ≤ 4.00 | > 8.30 | O=C1CN(c2c(O)cc(NC(=O)Nc3ccc(Cl)cc3)cc2F)S(=O)(=O)N1 [Example 47, 1-(4-chlorophenyl)-3-[4-(1,1-dioxido-4-oxo-1,2,5-thiadiazolidin-2-yl)-3-fluoro-5-hydroxyphenyl]urea] | 50 to 75 | 10 to 50 |
| 4.00 to 4.30 | ≤ 4.00 | 7.30 to 8.00 | CC(C)(C)OC(=O)N1CC(CNC(=O)Nc2cc(O)c(N3CC(=O)NS3(=O)=O)c(F)c2)C2(CCCCC2)C1 (stereo not shown) [Example 101, tert-butyl 4-[[[3-fluoro-5-hydroxy-4-(1,1,4-trioxo-1,2,5-thiadiazolidin-2-yl)phenyl]carbamoyl-amino]methyl]-2-azaspiro[4.5]decane-2-carboxylate] | 50 to 75 | 10 to 50 |
| ≤ 4.00 | ≤ 4.00 | > 8.30 | Cc1cccc(NC(=O)Nc2cc(O)c(N3CC(=O)NS3(=O)=O)c(F)c2)c1 [Example 42, 1-[4-(1,1-dioxido-4-oxo-1,2,5-thiadiazolidin-2-yl)-3-fluoro-5-hydroxyphenyl]-3-(3-methylphenyl)urea] | 10 to 50 | 10 to 50 |
| 4.30 to 5.00 | ≤ 4.00 | 7.30 to 8.00 | O=C1CN(c2c(O)cc(NC(=O)NCC3CCCO3)cc2F)S(=O)(=O)N1 (stereo not shown) [Example 57, 1-[4-(1,1-dioxido-4-oxo-1,2,5-thiadiazolidin-2-yl)-3-fluoro-5-hydroxyphenyl]-3-(tetrahydrofuran-2-ylmethyl)urea] | 50 to 75 | 10 to 50 |
| ≤ 4.00 | ≤ 4.00 | 8.00 to 8.30 | O=C1CN(c2c(O)cc(NC(=O)Nc3ccc(F)cc3)cc2F)S(=O)(=O)N1 [Example 53, 1-[4-(1,1-dioxido-4-oxo-1,2,5-thiadiazolidin-2-yl)-3-fluoro-5-hydroxyphenyl]-3-(4-fluorophenyl)urea] | 10 to 50 | 10 to 50 |
| > 5.30 | ≤ 4.00 | > 8.30 | O=C1CN(c2c(O)cc(NC(=O)NC3CCCCC3)cc2F)S(=O)(=O)N1 [Example 56, 1-cyclohexyl-3-[4-(1,1-dioxido-4-oxo-1,2,5-thiadiazolidin-2-yl)-3-fluoro-5-hydroxyphenyl]urea] | 75 to 100 | 10 to 50 |
